Values joined by “and” are separate entries in the source; they are usually repeats but may differ in a detail not shown here. Equal values may be shown once. Read-outs that look alike come from different tables or passages of the source.
Test: Pharmacokinetic parameters in rats
Assay type: in vivo, SD rats
Conditions: rat
Experimental: In the example, SD rats (180-220 g, male) (purchased from Experimental Animal Center of Anhui Medical University, China) were used. The animals were kept in cages ventilated independently with 6 rats per cage. The feeding was performed at a temperature of 20˜26° C. and a humidity of 35-75%. The light condition was 12 hours of lighting/12 hours of darkness. The corncob bedding was refreshed once a week. The rats were fed with foods and drinking water on an ad libitum basis. The rats were marked with a number on the tails. During the experiment, the breeding and use of animals strictly follow the regulations of Association for Assessment and Accreditation of Laboratory Animal Care International.
Solutions of Compound 16 and Comparative Compound 1 were prepared as follows. 10 mg of the compound to be tested was precisely weighed into a sterile vial, and was dissolved with a small amount of DMSO, and then was made to a constant volume of 5 ml with 5% glucose solution, to give a gavage test solution at a concentration of 2 mg/mL. 0.5 ml of the above gavage test solution at a concentration of 2 mg/mL was precisely taken, and was made to constant volume of 5 ml with 4.5 ml of 5% glucose solution, to give an intravenous injection test solution at a concentration of 0.2 mg/mL. The solution was prepared immediately before being used in the experiment.
6 SD rats were randomly divided into two groups, and the synthesized compounds were administered by gavage and tail vein injection, respectively. About 0.3 mL of blood samples were collected from the retro-orbital venous plexus at 0 h before administration and at 5 min, 15 min, 30 min, 1 h, 1.5 h, 2 h, 4 h, 6 h, 9 h, 12 h, 24 h after administration for the gavage group; and at 0 h before administration and at 2 min, 5 min, 15 min, 30 min, 1 h, 2 h, 4 h, 6 h, 9 h, and 12 h after administration for the tail vein group. Each of the collected blood samples was put in a 1.5 mL centrifuge tube with heparin (Sigma, USA). The sample was centrifuged at 6000 rpm for 3 min to separate the plasma. 100 μL of plasma in the upper layer was placed into a new 1.5 mL centrifuge tube, and stored at −80° C. for determination. 10 mg of a standard for the compound to be tested was precisely weighed into a 10 mL volumetric flask, and was dissolved by adding methanol to make a constant volume and mixed uniformly, to give a 1 mg/mL stock solution. The stock solution was then diluted gradually with methanol to give a series of working solutions at concentrations of 0.01, 0.02, 0.05, 0.1, 0.2, 0.5, 1, 2, 5, 10, 20 μg/mL. The working solutions were placed in a refrigerator at 4° C. for later use. 11 centrifuge tubes were used. 10 μL of the above working solutions was respectively added to each of the centrifuge tubes, and then 90 μL of blank rat plasma was respectively added therein. The mixtures were mixed uniformly, so that the concentration of the compound in the rat plasma was 1, 2, 5, 10, 20, 50, 100, 200, 500, 1000, 2000 ng/mL. Then, 20 μL of a solution of caffeine as the internal standard (200 ng/mL) (National Institutes for Food and Drug Control, China) was added therein, and the resultant mixtures were vortexed for 10 s. Next, 400 μL of methanol was added. The resultant mixtures were vortexed for 10 min, and centrifuged at 16000 rpm for 5 min. Thereafter, 70 μL of the supernatant was placed into the inserted pipe of a sampling bottle. 5 μL of the sample was introduced for a LC-MS/MS analysis. A standard curve of the compound in the rat plasma was obtained by means of a linear regression performed by taking the ratio of the peak area of the sample to that of the internal standard As/Ais as the vertical ordinate, taking the concentration C (μg/mL) as the horizontal ordinate, and taking 1/C^2 was taken as a weighting coefficient.
To 100 μL of the rat plasma to be tested stored at −80° C., 20 μL of a caffeine solution (200 ng/mL) as the internal standard was added. The resultant mixture was vortexed for 10 s. […]

[1] = male, Sprague-Dawley, plasma, iv, 1 mg/kg, intravenous injection 1 mg/kg, average n=3
[2] = male, Sprague-Dawley, plasma, iv, 1 mg/kg, intravenous injection 1 mg/kg, individual rats #1-#3
[3] = intravenous injection 1 mg/kg, average n=3
[4] = intravenous injection 1 mg/kg, individual rats #1-#3, listed as Comparative Compound 1, 1 mg/kg
[5] = oral administration (gavage) 10 mg/kg, average n=3
[6] = oral administration (gavage) 10 mg/kg, individual rats #1-#3, listed as Comparative Compound 1, 10 mg/kg

Cc1ccc(NC(=O)c2cccc(C(F)(F)F)c2)cc1-n1cc(-c2cccnc2)cn1 [compound 1, 3-trifluoromethyl-N-(4-methyl-3-(4-(pyrid-3-yl)-1H-pyrazol-1-yl)phenyl)benzamide, reference compound]
AUC(0-inf) (male, SD, plasma, po, 10 mg/kg, oral administration (gavage) 10 mg/kg, average n=3): 1020 ng·h/mL
Tmax (male, SD, plasma, po, 10 mg/kg, oral administration (gavage) 10 mg/kg, average n=3, read-out: Tmax): 30 min
half-life (male, SD, plasma, po, 10 mg/kg, oral administration (gavage) 10 mg/kg, average n=3, read-out: T½ (converted)): 54.4 min
Tmax (male, SD, plasma, po, 10 mg/kg, oral administration (gavage) 10 mg/kg, individual rats #1-#3, read-out: Tmax): 30 min
half-life (male, SD, plasma, po, 10 mg/kg, oral administration (gavage) 10 mg/kg, individual rats #1-#3, read-out: T½ (converted)): 60.2 min
AUC(0-inf) [1]: 92.5 ng·h/mL
clearance [1]: 188 mL/min/kg
AUC0-t (male, Sprague-Dawley, plasma, iv, 1 mg/kg, intravenous injection 1 mg/kg, average n=3, read-out: AUC0-t): 91.6 ng·h/mL
C0 (male, Sprague-Dawley, plasma, iv, 1 mg/kg, intravenous injection 1 mg/kg, average n=3, read-out: C0): 348 ng/mL
Cmax (male, Sprague-Dawley, plasma, iv, 1 mg/kg, intravenous injection 1 mg/kg, average n=3, read-out: Cmax): 262 ng/mL
MRT last (male, Sprague-Dawley, plasma, iv, 1 mg/kg, intravenous injection 1 mg/kg, average n=3, read-out: MRT0-t): 34 min
MRT inf (male, Sprague-Dawley, plasma, iv, 1 mg/kg, intravenous injection 1 mg/kg, average n=3, read-out: MRT0-∞): 37 min
Tmax (male, Sprague-Dawley, plasma, iv, 1 mg/kg, intravenous injection 1 mg/kg, average n=3, read-out: Tmax): 1.98 min
half-life (male, Sprague-Dawley, plasma, iv, 1 mg/kg, intravenous injection 1 mg/kg, average n=3, read-out: T½ (converted)): 42.9 min
Vd (male, Sprague-Dawley, plasma, iv, 1 mg/kg, intravenous injection 1 mg/kg, average n=3, read-out: Vz): 12 L/kg
AUC(0-inf) [2]: 84 ng·h/mL
clearance [2]: 198 mL/min/kg
AUC0-t (male, Sprague-Dawley, plasma, iv, 1 mg/kg, intravenous injection 1 mg/kg, individual rats #1-#3, read-out: AUC0-t): 83.3 ng·h/mL
C0 (male, Sprague-Dawley, plasma, iv, 1 mg/kg, intravenous injection 1 mg/kg, individual rats #1-#3, read-out: C0): 260 ng/mL
Cmax (male, Sprague-Dawley, plasma, iv, 1 mg/kg, intravenous injection 1 mg/kg, individual rats #1-#3, read-out: Cmax): 200 ng/mL
MRT last (male, Sprague-Dawley, plasma, iv, 1 mg/kg, intravenous injection 1 mg/kg, individual rats #1-#3, read-out: MRT0-t): 36.3 min
MRT inf (male, Sprague-Dawley, plasma, iv, 1 mg/kg, intravenous injection 1 mg/kg, individual rats #1-#3, read-out: MRT0-∞): 38.5 min
Tmax (male, Sprague-Dawley, plasma, iv, 1 mg/kg, intravenous injection 1 mg/kg, individual rats #1-#3, read-out: Tmax): 1.98 min
half-life (male, Sprague-Dawley, plasma, iv, 1 mg/kg, intravenous injection 1 mg/kg, individual rats #1-#3, read-out: T½ (converted)): 38.8 min
bioavailability (male, Sprague-Dawley, plasma, oral, 10 mg/kg, oral administration (gavage) 10 mg/kg vs intravenous 1 mg/kg, average n=3, read-out: F (oral bioavailability)): 111%
AUC0-t (male, Sprague-Dawley, plasma, po, 10 mg/kg, oral administration (gavage) 10 mg/kg, average n=3, read-out: AUC0-t): 1010 ng·h/mL
Cmax (male, Sprague-Dawley, plasma, po, 10 mg/kg, oral administration (gavage) 10 mg/kg, average n=3, read-out: Cmax): 576 ng/mL
MRT last (male, Sprague-Dawley, plasma, po, 10 mg/kg, oral administration (gavage) 10 mg/kg, average n=3, read-out: MRT0-t): 93.7 min
MRT inf (male, Sprague-Dawley, plasma, po, 10 mg/kg, oral administration (gavage) 10 mg/kg, average n=3, read-out: MRT0-∞): 98.5 min
MRT last (male, Sprague-Dawley, plasma, po, 10 mg/kg, oral administration (gavage) 10 mg/kg, individual rats #1-#3, read-out: MRT0-t): 109 min
MRT inf (male, Sprague-Dawley, plasma, po, 10 mg/kg, oral administration (gavage) 10 mg/kg, individual rats #1-#3, read-out: MRT0-∞): 115 min
AUMC0-t [3]: 53.50 hr*hr*ng/ml
AUMC0-∞ [3]: 58.31 hr*hr*ng/ml
AUC0-t [4]: 71.86 ng·h/mL and 119.59 ng·h/mL
AUC0-∞ [4]: 73.08 ng·h/mL and 120.51 ng·h/mL
AUMC0-t [4]: 50.39 hr*hr*ng/ml and 31.52 hr*hr*ng/ml and 78.58 hr*hr*ng/ml
AUMC0-∞ [4]: 53.89 hr*hr*ng/ml and 37.99 hr*hr*ng/ml and 83.06 hr*hr*ng/ml
C0 [4]: 402.4 ng/mL and 380.8 ng/mL
Cl [4]: 228.07 mL/min/kg and 138.3 mL/min/kg
Cmax [4]: 285.0 ng/mL and 300.0 ng/mL
MRT0-t [4]: 26.3 min and 39.4 min
MRT0-∞ [4]: 31.2 min and 41.3 min
T½ [4]: 54.4 min and 35.5 min
Vz [4]: 11.101 L/kg and 17.886 L/kg and 7.085 L/kg
F (oral bioavailability) (oral administration (gavage) 10 mg/kg vs intravenous 1 mg/kg, individual rats #1-#3, listed as Comparative Compound 1): 31.2% and 133.6% and 167.2%
AUMC0-t [5]: 1474 hr*hr*ng/ml
AUMC0-∞ [5]: 1566 hr*hr*ng/ml
Cl [5]: 273.12 mL/min/kg
Vz [5]: 22.672 L/kg
AUC0-t [6]: 285.6 ng·h/mL and 1217 ng·h/mL and 1532 ng·h/mL
AUC0-∞ [6]: 289.0 ng·h/mL and 1236 ng·h/mL and 1547 ng·h/mL
AUMC0-t [6]: 518.7 hr*hr*ng/ml and 1889 hr*hr*ng/ml and 2013 hr*hr*ng/ml
AUMC0-∞ [6]: 554.4 hr*hr*ng/ml and 2023 hr*hr*ng/ml and 2121 hr*hr*ng/ml
Cl [6]: 576.77 mL/min/kg and 134.8 mL/min/kg and 107.8 mL/min/kg
Cmax [6]: 138 ng/mL and 579 ng/mL and 1010 ng/mL
MRT0-t [6]: 93.12 min and 78.84 min
MRT0-∞ [6]: 98.22 min and 82.26 min
T½ [6]: 49.3 min and 53.6 min
Vz [6]: 50.104 L/kg and 9.579 L/kg and 8.334 L/kg
